The source of these data is patent US12233161B1, “Lipids and lipid nanoparticle formulations” (LONGUIDE BIOPHARMA CORPORATION, priority 2024, dated 2025).

Data set [1] in a line: Particle size and PDI of nucleic acid lipid nanoparticle preparations by dynamic light scattering. Format: physicochemical. Here is the method: The 7.5 μL nucleic acid lipid nanoparticle solution (containing approximately 0.04 mg/mL mRNA) was taken and added with 200 μL ultrapure water, mixed by gentle blowing using a pipette tip, and the particle size of the nanopreparation was detected by dynamic lightscattering (DLS) using a Malvern Dynamic Light Scattering Instrument (Malvern Instruments Ltd., ZEN3700, UK).
27.5 μL nucleic acid lipid nanoparticle solution (containing about 0.04 mg/mL mRNA) was taken and added with 200 μL ultrapure water. A pipette tip was used to gently blow the sample and mix well. The particle size of the nanopreparation was detected by Malvern Dynamic Light Scattering Instrument (Malvern Instruments Ltd., ZEN3700, UK). After the detection, the sample was recovered to an EP tube, and 600 μL of ultrapure water was added, gently blown with a pipette tip, and the potential of the nanopreparation was measured by a Malvern particle size meter.

Data set [2] relates to mice. Put plainly: In vivo delivery of FLuc-mRNA lipid nanoparticles in mice, in vivo imaging (IVIS). The method in brief:
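Mice (n=3) received about 75 μL FLuc-mRNA LNP per mouse intramuscularly (rectus femoris), intravenously (tail vein), intraperitoneally or subcutaneously (back). After injection, D-luciferin (200 μL, 15 mg/mL) was given i.p. 10-15 min before IVIS imaging.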

Where [3] appears, read: DMG-PEG2000:DSPC:Chol:Lipid 1.40:11.15:38.95:48.50, N/P 48, mRNA LNP.
Setting [4] is: DMG-PEG2000:DSPC:Chol:Lipid 1.77:14.07:49.16:35.00, N/P 48, mRNA LNP.
[5] abbreviates: DMG-PEG2000:DSPC:Chol:compound 1.40:11.15:38.95:48.50, N/P 20.
[6] abbreviates: DMG-PEG2000:DSPC:Chol:compound 1.40:11.15:38.95:48.50, N/P 30.
Where [7] appears, read: DMG-PEG2000:DSPC:Chol:Lipid 1.40:11.15:38.95:48.50, N/P 16.7, mRNA LNP.
[8] abbreviates: DMG-PEG2000:DSPC:Chol:Lipid 1.00:11.50:22.50:65.00, N/P 45, mRNA LNP.
Setting [9] is: DMG-PEG2000:DSPC:Chol:Lipid 1.00:16.00:48.00:35.00, N/P 30, mRNA LNP.
[10] abbreviates: DMG-PEG2000:DSPC:Chol:Lipid 1.40:11.15:38.95:48.50, N/P 45, mRNA LNP.
[11] abbreviates: DMG-PEG2000:DSPC:Chol:Lipid 1.00:11.50:22.50:65.00, N/P 45, IV, liver.
Setting [12] is: DMG-PEG2000:DSPC:Chol:Lipid 1.00:11.50:22.50:65.00, N/P 45, IV, lung.
Where [13] appears, read: DMG-PEG2000:DSPC:Chol:Lipid 1.00:11.50:22.50:65.00, N/P 45, IV, spleen.
[14] abbreviates: DMG-PEG2000:DSPC:Chol:Lipid 1.00:16.00:48.00:35.00, N/P 30, IV, liver.
The mark [15] stands for this setting: DMG-PEG2000:DSPC:Chol:Lipid 1.00:16.00:48.00:35.00, N/P 30, IV, lung.
Where [16] appears, read: DMG-PEG2000:DSPC:Chol:Lipid 1.00:16.00:48.00:35.00, N/P 30, IV, spleen.
Where [17] appears, read: DMG-PEG2000:DSPC:Chol:Lipid 1.40:11.15:38.95:48.50, N/P 30, mRNA LNP.
The mark [18] stands for this setting: DMG-PEG2000:DSPC:Chol:Lipid 2.63:12.10:53.68:31.59, N/P 30, mRNA LNP.
Setting [19] is: DMG-PEG2000:DSPC:Chol:Lipid 1.40:11.15:38.95:48.50, N/P 30, IV, liver.
The mark [20] stands for this setting: DMG-PEG2000:DSPC:Chol:Lipid 1.40:11.15:38.95:48.50, N/P 30, IV, lung.
Setting [21] is: DMG-PEG2000:DSPC:Chol:Lipid 1.40:11.15:38.95:48.50, N/P 30, IV, spleen.
The mark [22] stands for this setting: DMG-PEG2000:DSPC:Chol:Lipid 2.63:12.10:53.68:31.59, N/P 30, IV, liver.
Setting [23] is: DMG-PEG2000:DSPC:Chol:Lipid 2.63:12.10:53.68:31.59, N/P 30, IV, lung.
[24] abbreviates: DMG-PEG2000:DSPC:Chol:Lipid 2.63:12.10:53.68:31.59, N/P 30, IV, spleen.

For the molecule `CCCCCCOCOCCCCCCOC(=O)C(O)CN(CCCN(CC(O)C(=O)OCCCCCCOCOCCCCCC)CC(O)C(=O)OCCCCCCOCOCCCCCC)CCCN(CC(O)C(=O)OCCCCCCOCOCCCCCC)CC(O)C(=O)OCCCCCCOCOCCCCCC` (stereo not shown) [Compound L0270], the PDI in data set [1] (setting [3]) stood at 0.12 ± 0.00; in data set [1] (setting [4]), 0.10 ± 0.03. Also, the values for the Particle size in data set [1] (setting [3]) and in data set [1] (setting [4]) were 131.00 ± 1.32 nm and 144.83 ± 1.39 nm, respectively. The IVIS in data set [2] (DMG-PEG2000:DSPC:Chol:Lipid 1.40:11.15:38.95:48.50, N/P 48, IM, whole body scan) was 2.09 × 10^7; in data set [2] (DMG-PEG2000:DSPC:Chol:Lipid 1.40:11.15:38.95:48.50, N/P 48, IV, whole body scan) it was 1.56 × 10^9; in data set [2] (DMG-PEG2000:DSPC:Chol:Lipid 1.77:14.07:49.16:35.00, N/P 48, IH, whole body scan), 2.89 × 10^6. Further, the “in vivo delivery efficiency as compared to the benchmark compound SM102” value in data set [2] (certain formulations, Table 2) was “superior in vivo delivery efficiency”.

Regarding `CCCCCCCCCCNC(=O)C(O)CN(CCOCCOCCN(CC(O)C(=O)NCCCCCCCCCC)CC(O)C(=O)NCCCCCCCCCC)CC(O)C(=O)NCCCCCCCCCC` (stereo not shown) [Compound L0325], in data set [1] (setting [5]), the PDI is 0.12 and the “Particle size (nm)” value is 94.88 nm. Also, the IVIS in data set [2] (IM, DMG-PEG2000:DSPC:Chol:compound 1.40:11.15:38.95:48.50, N/P 20, Fluc-mRNA) was determined as 5.09E+06. Further, in data set [2] (IV, organ not given, DMG-PEG2000:DSPC:Chol:compound 1.40:11.15:38.95:48.50, N/P 20, Fluc-mRNA), the IVIS was 1.95E+07.

Consider `CCCCCCCCCCCCOC(=O)C(O)CN(C)CCCN(C)CCCN(C)CC(O)C(=O)OCCCCCCCCCCCC` (stereo not shown) [Compound L0310], for which, in data set [1] (setting [6]), the PDI is 0.22 and the “Particle size (nm)” value is 190.63 nm. In data set [2] (IM, DMG-PEG2000:DSPC:Chol:compound 1.40:11.15:38.95:48.50, N/P 30, Fluc-mRNA), this molecule displayed an IVIS of 1.53E+05. Further, the IVIS in data set [2] (IV, organ not given, DMG-PEG2000:DSPC:Chol:compound 1.40:11.15:38.95:48.50, N/P 30, Fluc-mRNA) amounted to 2.77E+05.

For the molecule `CCCCCCOCOCCCCCCOC(=O)C(O)CN(CCN(C)CCN(CC(O)C(=O)OCCCCCCOCOCCCCCC)CC(O)C(=O)OCCCCCCOCOCCCCCC)CC(O)C(=O)OCCCCCCOCOCCCCCC` (stereo not shown) [Compound L0272], the PDI in data set [1] (setting [7]) was found to be 0.09 ± 0.02. In data set [1] (setting [7]), this molecule gave a Particle size of 137.20 ± 0.61 nm. Also, the IVIS is 9.96 × 10^7 in data set [2] (DMG-PEG2000:DSPC:Chol:Lipid 1.40:11.15:38.95:48.50, N/P 16.7, IM, whole body scan) and 9.45 × 10^8 in data set [2] (DMG-PEG2000:DSPC:Chol:Lipid 1.40:11.15:38.95:48.50, N/P 16.7, IV, whole body scan). Further, the “in vivo delivery efficiency as compared to the benchmark compound SM102” value in data set [2] (certain formulations, Table 2) is “superior in vivo delivery efficiency”.

Regarding `CCCCCCCCCCCCOC(=O)C(O)CN(CCCN(CC(O)C(=O)OCCCCCCCCCCCC)CC(O)C(=O)OCCCCCCCCCCCC)CCCN(CC(O)C(=O)OCCCCCCCCCCCC)CC(O)C(=O)OCCCCCCCCCCCC` (stereo not shown) [Compound L0269], the PDI in data set [1] (setting [8]) is 0.06 ± 0.01; in data set [1] (setting [9]), 0.11 ± 0.01; in data set [1] (setting [10]), 0.10 ± 0.01. In addition, the Particle size in data set [1] (setting [8]) amounted to 128.20 ± 0.89 nm; in data set [1] (setting [9]), 125.17 ± 1.03 nm; in data set [1] (setting [10]), 142.10 ± 0.78 nm. The IVIS in data set [2] (DMG-PEG2000:DSPC:Chol:Lipid 1.00:11.50:22.50:65.00, N/P 45, IV, body) was 9.49 × 10^8; in data set [2] (setting [11]), 2.05 × 10^8; in data set [2] (setting [12]) it was 1.88 × 10^6; in data set [2] (setting [13]), 8.80 × 10^7; in data set [2] (DMG-PEG2000:DSPC:Chol:Lipid 1.00:16.00:48.00:35.00, N/P 30, IV, body), 5.46 × 10^8; in data set [2] (setting [14]), 7.87 × 10^7. For the same molecule, the IVIS was 8.92 × 10^5 in data set [2] (setting [15]); 1.94 × 10^8 in data set [2] (setting [16]); 3.83 × 10^7 in data set [2] (DMG-PEG2000:DSPC:Chol:Lipid 1.40:11.15:38.95:48.50, N/P 45, IM, whole body scan). Further, the “% of organ targeting” value in data set [2] (setting [11]) stood at 69.52%; in data set [2] (setting [12]), 0.64%; in data set [2] (setting [13]), 29.84%; in data set [2] (setting [14]), 28.77%; in data set [2] (setting [15]), 0.33%; in data set [2] (setting [16]), 70.91%. For the same molecule, the “in vivo delivery efficiency as compared to the benchmark compound SM102” value in data set [2] (certain formulations, Table 2) is reported as “superior in vivo delivery efficiency”.

As to `CCCCCCCCCCCCNC(=O)C(O)CN(CCCCN(C)CCCCN(CC(O)C(=O)NCCCCCCCCCCCC)CC(O)C(=O)NCCCCCCCCCCCC)CC(O)C(=O)NCCCCCCCCCCCC` (stereo not shown) [Compound L0283], the PDI in data set [1] (setting [17]) and in data set [1] (setting [18]) was 0.12 ± 0.01 throughout. The Particle size in data set [1] (setting [17]) was determined as 99.68 ± 0.45 nm; in data set [1] (setting [18]), 95.92 ± 0.22 nm. Further, the IVIS in data set [2] (DMG-PEG2000:DSPC:Chol:Lipid 1.40:11.15:38.95:48.50, N/P 30, IM, whole body scan) is reported as 2.02 × 10^6; in data set [2] (DMG-PEG2000:DSPC:Chol:Lipid 1.40:11.15:38.95:48.50, N/P 30, IV, body (whole body scan)), 1.94 × 10^8; in data set [2] (setting [19]), 9.53 × 10^6; in data set [2] (setting [20]) it was 1.24 × 10^9; in data set [2] (setting [21]), 1.54 × 10^7; in data set [2] (DMG-PEG2000:DSPC:Chol:Lipid 2.63:12.10:53.68:31.59, N/P 30, IV, body), 4.87 × 10^7. For the same molecule, the results for the IVIS in data set [2] (setting [22]), in data set [2] (setting [23]) and in data set [2] (setting [24]) were 3.31 × 10^6, 1.48 × 10^7 and 3.98 × 10^7, respectively. Besides, the “% of organ targeting” value in data set [2] (setting [19]) came to 0.75%; in data set [2] (setting [20]), 98.03%; in data set [2] (setting [21]), 1.22%; in data set [2] (setting [22]), 5.72%; in data set [2] (setting [23]) it was 25.56%; in data set [2] (setting [24]), 68.73%. The “in vivo delivery efficiency as compared to the benchmark compound SM102” value in data set [2] (certain formulations, Table 2) is reported as “superior in vivo delivery efficiency”. The “tissue-targeting specificity (lung vs spleen depending on molar percentage of compound)” value in data set [2] (certain formulations, Table 2) is recorded as “strong tissue-targeting specificity”.
